Measured values: patent USRE32333E, “A-21978 Antibiotics and process for their production” (priority 1985, dated 1987)
≈ marks a conversion by molar mass, not a printed value. Where “and” joins values, the source holds several entries; their conditions need not be identical. Identical values can stand only once. Like-named read-outs stand apart in the source and are kept apart here.

Tests used:
[1] = test system: S. roseosporus (ISP 5122; ATCC 23958); experiment: Antibiotic sensitivity of comparison culture (sensitivity discs); type: cell-based, Streptomyces roseosporus; design: key: + = sensitive (zones of inhibition); - = resistant (no zones of inhibition); conditions: discs on seeded ISP #2 agar; erythromycin 15 μg, cephalothin 30 μg, lincomycin 2 μg, nystatin 100 units, polymyxin B 300 units, streptomycin 10 μg, tetracycline 30 μg, vancomycin 30 μg
Procedure: Temperature range, NaCl tolerance, pH range, and antibiotic sensitivity were done using ISP #2 agar medium. The range of temperatures were: 25°, 28°, 30°, 34°, 37°, 40°, 45°, 50° and 55° C. NaCl tolerance was measured by adding NaCl to the agar to equal: 0, 1, 2, 3, 4, 5, 6, 8, 10 and 12%. These were incubated at 30° C. The pH range was measured by adjusting the agar from pH 3.0 to 11.0 at increments of 1.0 pH units, just prior to pouring. Antibiotic sensitivity was determined using sensitivity discs padded onto seeded agar plates. Streptomyces roseosporus ISP 5122; ATCC 23958

[2] = test system: A21978.6 (Streptomyces roseosporus NRRL 11379); experiment: Antibiotic sensitivity of producing culture (sensitivity discs); type: cell-based; design: key: + = sensitive (zones of inhibition); - = resistant (no zones of inhibition); conditions: discs on seeded ISP #2 agar; erythromycin 15 μg, cephalothin 30 μg, lincomycin 2 μg, nystatin 100 units, polymyxin B 300 units, streptomycin 10 μg, tetracycline 30 μg, vancomycin 30 μg
Procedure: Temperature range, NaCl tolerance, pH range, and antibiotic sensitivity were done using ISP #2 agar medium. The range of temperatures were: 25°, 28°, 30°, 34°, 37°, 40°, 45°, 50° and 55° C. NaCl tolerance was measured by adding NaCl to the agar to equal: 0, 1, 2, 3, 4, 5, 6, 8, 10 and 12%. These were incubated at 30° C. The pH range was measured by adjusting the agar from pH 3.0 to 11.0 at increments of 1.0 pH units, just prior to pouring. Antibiotic sensitivity was determined using sensitivity discs padded onto seeded agar plates.

[3] = test system: Streptococcus faecalis (Guze); experiment: Streptococcus faecalis descending rat pyelonephritis test; conditions: for Percent of Rats Cured: cure = kidney counts less than 10^2 per g; for Percent of Rats with a 4-Log Titer Decrease: once daily, kidney titer vs infected controls
Staphylococcus aureus [4] = experiment: MIC, agar dilution (Table XV); type: cell-based
From the text: (§1) ^1 MIC = minimum inhibitory concentration (μg/ml), agar dilution

Streptococcus pneumoniae [5] = experiment: MIC, agar dilution (Table XV); type: cell-based
From the text: as §1

Streptococcus pyogenes [6] = experiment: MIC, agar dilution (Table XV); type: cell-based
From the text: as §1

Staphylococcus aureus [7] = experiment: Experimental bacterial infection in mice, ED50; type: in vivo; conditions: S. aureus infection, two doses, subcutaneous administration
Procedure: (§2) When two doses of test compound were administered to mice in illustrative infections, the activity observed as measured as an ED50 value [effective dose in mg/kg to protect fifty percent of the test animals: See Warren Wick, et al., J. Bacteriol, 81, 233-235 (1961)].

Streptococcus pneumoniae [8] = experiment: Experimental bacterial infection in mice, ED50; type: in vivo; conditions: S. pneumoniae infection, two doses, subcutaneous administration
Procedure: as §2

Streptococcus pyogenes [9] = experiment: Experimental bacterial infection in mice, ED50; type: in vivo; conditions: S. pyogenes infection, two doses
Procedure: as §2

[10] = test system: Viridans Streptococcus 9943; experiment: MIC, standard agar-dilution test (Table XI); type: cell-based; conditions: aerobic, sodium salt form
Clostridium septicum = experiment: MIC against anaerobic bacteria, standard agar-dilution (Table XIV); type: cell-based; conditions: anaerobe
Fusobacterium symbiosum = experiment: as above; type: cell-based; conditions: anaerobe
[11] = Electrometric titration in 66% aqueous dimethylformamide; type: physicochemical; conditions: 66% DMF, Na salt forms; factors: two determinations
[12] = Mouse
[13] = test system: Group D Streptococcus 282; experiment: MIC, standard broth-dilution test (Table XII); type: cell-based; conditions: aerobic
[14] = test system: Streptococcus pyogenes C203; experiment: MIC, standard broth-dilution test (Table XII); type: cell-based; conditions: aerobic, S. pyogenes C203
[15] = test system: Fusobacterium necrophorum; experiment: MIC against anaerobic bacteria, standard agar-dilution (Table XIV); type: cell-based; conditions: anaerobe
[16] = test system: Streptococcus pneumoniae Park I; experiment: MIC, standard broth-dilution test (Table XII); type: cell-based; conditions: aerobic, S. pneumoniae Park I
[17] = test system: Staphylococcus aureus 3055; experiment: MIC, standard agar-dilution test (Table XI); type: cell-based; conditions: aerobic, S. aureus 3055, sodium salt form
[18] = test system: Staphylococcus aureus 3055; experiment: MIC, standard broth-dilution test (Table XII); type: cell-based; conditions: aerobic, S. aureus 3055
Peptococcus prevoti = experiment: MIC against anaerobic bacteria, standard agar-dilution (Table XIV); type: cell-based; conditions: anaerobe
Propionibacterium acnes = experiment: as above; type: cell-based; conditions: anaerobe
[19] = test system: Neisseria gonorrhoeae 111076-4; experiment: MIC, standard agar-dilution test (Table XI); type: cell-based; conditions: aerobic, N. gonorrhoeae 111076-4, sodium salt form
[20] = Rat, IV
Micrococcus luteus = experiment: Paper-disc agar-diffusion bioassay; conditions: individual factors, Na salts
[21] = test system: Group D Streptococcus 282; experiment: MIC, standard agar-dilution test (Table XI); type: cell-based; conditions: aerobic, sodium salt form
[22] = test system: Peptostreptococcus intermedius; experiment: MIC against anaerobic bacteria, standard agar-dilution (Table XIV); type: cell-based; conditions: anaerobe
[23] = test system: Viridans Streptococcus 9943; experiment: MIC, standard broth-dilution test (Table XII); type: cell-based; conditions: aerobic
Eubacterium aerofaciens = experiment: MIC against anaerobic bacteria, standard agar-dilution (Table XIV); type: cell-based; conditions: anaerobe
Bacteroides fragilis = experiment: as above; type: cell-based; conditions: anaerobe
Staphylococcus aureus [24] = experiment: MIC against clinical isolates, ICS agar-dilution (Table XIII); type: cell-based; conditions: 10 clinical isolates, bracket = number of isolates with this MIC or range
[25] = test system: Peptostreptococcus anaerobius; experiment: MIC against anaerobic bacteria, standard agar-dilution (Table XIV); type: cell-based; conditions: anaerobe
[26] = test system: Streptococcus pyogenes C203; experiment: MIC, standard agar-dilution test (Table XI); type: cell-based; conditions: aerobic, S. pyogenes C203, sodium salt form
[27] = test system: Streptococcus faecalis (Guze); experiment: In vitro susceptibility (MIC) of the S. faecalis Guze strain; type: cell-based
From the text: ^1 In vitro susceptibility of the S. faecalis Guze strain

Clostridium perfringens = conditions: anaerobe, agar-dilution
[28] = test system: Streptococcus pneumoniae Park I; experiment: MIC, standard agar-dilution test (Table XI); type: cell-based; conditions: aerobic, S. pneumoniae Park I, sodium salt form
[29] = test system: Peptococcus asaccharolyticus; experiment: MIC against anaerobic bacteria, standard agar-dilution (Table XIV); type: cell-based; conditions: anaerobe
Actinomyces israelii = experiment: as above; type: cell-based; conditions: anaerobe

## CCC[C@@H]1C[C@@H](C(=O)N[C@@H]([C@H]2O[C@H](SC)[C@H](O)[C@@H](O)[C@H]2O)[C@@H](C)O)N(C)C1 [Lincomycin]
[1]
  Antibiotic Sensitivity, S. roseosporus: -
[2]
  Antibiotic Sensitivity, A21978.6: -

## CC(=O)OCC1=C(C(=O)O)N2C(=O)[C@@H](NC(=O)Cc3cccs3)[C@H]2SC1 [Cephalothin]
[1]
  Antibiotic Sensitivity, S. roseosporus: +
[2]
  Antibiotic Sensitivity, A21978.6: +

## CN[C@H](CC(C)C)C(=O)N[C@H]1C(=O)N[C@@H](CC(N)=O)C(=O)N[C@H]2C(=O)N[C@H]3C(=O)N[C@H](C(=O)N[C@H](C(=O)O)c4cc(O)cc(O)c4-c4cc3ccc4O)[C@H](O)c3ccc(c(Cl)c3)Oc3cc2cc(c3O[C@@H]2O[C@H](CO)[C@@H](O)[C@H](O)[C@H]2O[C@H]2C[C@](C)(N)[C@H](O)[C@H](C)O2)Oc2ccc(cc2Cl)[C@H]1O [Vancomycin, reference compound]
[1]
  Antibiotic Sensitivity, S. roseosporus: +
[2]
  Antibiotic Sensitivity, A21978.6: +
[3]; 12.0 mg/kg x 7 subcutaneous
  Percent of Rats Cured: 33
  Percent of Rats with a 4-Log Titer Decrease: 55

## Polymyxin B
[1]
  Antibiotic Sensitivity, S. roseosporus: -
[2]
  Antibiotic Sensitivity, A21978.6: +

## CC[C@H]1OC(=O)[C@H](C)[C@@H](O[C@H]2C[C@@](C)(OC)[C@@H](O)[C@H](C)O2)[C@H](C)[C@@H](O[C@@H]2O[C@H](C)C[C@H](N(C)C)[C@H]2O)[C@](C)(O)C[C@@H](C)C(=O)[C@H](C)[C@@H](O)[C@]1(C)O [Erythromycin, reference compound]
Staphylococcus aureus [4]; read-out: MIC
  MIC: 0.13 µg/mL (≈ 0.177 µM)
Streptococcus pneumoniae [5]; read-out: MIC
  MIC: 0.5 µg/mL (≈ 0.681 µM)
Streptococcus pyogenes [6]; read-out: MIC
  MIC: 0.13 µg/mL (≈ 0.177 µM)
[1]
  Antibiotic Sensitivity, S. roseosporus: +
[2]
  Antibiotic Sensitivity, A21978.6: +
Staphylococcus aureus [7]; Staphylococcus aureus, sc, read-out: ED50
  ED50: 0.5 mg/kg
Streptococcus pneumoniae [8]; Streptococcus pneumoniae, sc, read-out: ED50
  ED50: 7.3 mg/kg
Streptococcus pyogenes [9]; Streptococcus pyogenes, sc, subcutaneous administration, read-out: ED50
  ED50: 0.64 mg/kg

## C[C@@H]1[C@H](O)[C@@H](C)/C=C/C=C/CC/C=C/C=C/C=C/C=C/C(O[C@H]2O[C@H](C)[C@@H](O)[C@H](N)[C@@H]2O)CC2O[C@](O)(CC(O)C(O)CCC(O)CC(O)CC(O)CC(=O)O[C@H]1C)CC(O)C2C(=O)O (stereo partly shown) [Nystatin]
[1]
  Antibiotic Sensitivity, S. roseosporus: -
[2]
  Antibiotic Sensitivity, A21978.6: -

## CC(C)CCCCCCCCC(=O)NC(Cc1c[nH]c2ccccc12)C(=O)NC(CC(N)=O)C(=O)NC(CC(=O)O)C(=O)NC1C(=O)NCC(=O)NC(CCCN)C(=O)NC(CC(=O)O)C(=O)NC(C)C(=O)NC(CC(=O)O)C(=O)NCC(=O)NC(CO)C(=O)NC(C(C)CC(=O)O)C(=O)NC(CC(=O)c2ccccc2N)C(=O)OC1C (stereo not shown) [Factor C2]
Staphylococcus aureus [4]
  MIC: 0.13 µg/mL (≈ 0.0788 µM)
Streptococcus pneumoniae [5]
  MIC: 0.13 µg/mL (≈ 0.0788 µM)
Streptococcus pyogenes [6]
  MIC: 0.13 µg/mL (≈ 0.0788 µM)
[10]
  MIC: 1.0 µg/mL
Clostridium septicum
  MIC: 1.0 µg/mL (≈ 0.607 µM)
Fusobacterium symbiosum
  MIC: > 128 µg/mL
[11]
  pKa Values (first group): 5.8 and 5.93
  pKa Values (second group): 7.6 and 7.63
[12]; IV
  LD50: 150 to 250 mg/kg
[12]; SC
  LD50: 175 mg/kg
[13]
  MIC: 1.0 µg/mL (≈ 0.607 µM)
[14]
  MIC: 0.25 µg/mL (≈ 0.152 µM)
[15]
  MIC: 64 µg/mL (≈ 38.8 µM)
[16]
  MIC: 1.0 µg/mL (≈ 0.607 µM)
[17]
  MIC: 0.13 µg/mL
[18]
  MIC: 0.5 µg/mL (≈ 0.303 µM)
Peptococcus prevoti
  MIC: 1.0 µg/mL (≈ 0.607 µM)
Propionibacterium acnes
  MIC: 2 µg/mL (≈ 1.21 µM)
[19]
  MIC: 4.0 µg/mL
[20]
  LD50: 204 ± 17 mg/kg
Micrococcus luteus
  Bioassay (Micrococcus luteus): 1390 units/mg
[21]
  MIC: 0.25 µg/mL
[22]
  MIC: 1.0 µg/mL (≈ 0.607 µM)
[23]
  MIC: 16.0 µg/mL (≈ 9.7 µM)
Eubacterium aerofaciens
  MIC: 8 µg/mL (≈ 4.85 µM)
Bacteroides fragilis
  MIC: > 128 µg/mL
Staphylococcus aureus [24]
  Minimum Inhibitory Concentration: 0.12 to 0.25 µg/mL
[25]
  MIC: 1.0 µg/mL (≈ 0.607 µM)
[26]
  MIC: 0.13 µg/mL
[27]
  MIC: 0.25 µg/mL (≈ 0.152 µM)
Clostridium perfringens
  MIC: 8 µg/mL (≈ 4.85 µM)
Staphylococcus aureus [7]
  ED50: 0.16 mg/kg
Streptococcus pneumoniae [8]
  ED50: 0.14 mg/kg
Streptococcus pyogenes [9]; oral administration
  ED50: 59 mg/kg
Streptococcus pyogenes [9]; subcutaneous administration
  ED50: 0.032 mg/kg
[28]
  MIC: 0.25 µg/mL
[29]
  MIC: 2 µg/mL (≈ 1.21 µM)
[3]; 1.0 mg/kg x 7 subcutaneous
  Percent of Rats Cured: 89
  Percent of Rats with a 4-Log Titer Decrease: 100
Actinomyces israelii
  MIC: 1.0 µg/mL (≈ 0.607 µM)

## [H]/N=C(/N)N[C@H]1[C@H](O)[C@@H](O)[C@H](O[C@@H]2O[C@@H](C)[C@](O)(C=O)[C@H]2O[C@@H]2O[C@@H](CO)[C@H](O)[C@@H](O)[C@@H]2NC)[C@@H](N/C(N)=N\[H])[C@@H]1O [Streptomycin]
[1]
  Antibiotic Sensitivity, S. roseosporus: +
[2]
  Antibiotic Sensitivity, A21978.6: +

## CN(C)[C@@H]1C(O)=C(C(N)=O)C(=O)[C@@]2(O)C(O)=C3C(=O)c4c(O)cccc4[C@@](C)(O)[C@H]3C[C@@H]12 [Tetracycline]
[1]
  Antibiotic Sensitivity, S. roseosporus: +
[2]
  Antibiotic Sensitivity, A21978.6: +
